Laboratory results taken from publication PMC13288134 (Structure (London, England : 1993), 2025).

Legend:
TvVip1 [1] = molecular target: T1, TvVip1 (Trichoderma virens, UniProt G9MQB8); test: competition: loss of deu-5'-dA formation from […] deuterated NTP, LC-MS; type: biochemical
TvVip1 CTP-swap V2 [2] = molecular target: T2, TvVip1 CTP-swap V2 (Trichoderma virens, UniProt Z9USF9BXN2); test: competition: deu-5'-dA formation by LC-MS, Cheng-Prusoff from IC50 and Km; type: biochemical; settings: calculated from average IC50 and Km; competitive assumption; 1 mM deuCTP, 1 mM SAM, 10 μM enzyme, dithionite, HEPES pH 7.5
T2 sequence (Z9USF9BXN2 24-317): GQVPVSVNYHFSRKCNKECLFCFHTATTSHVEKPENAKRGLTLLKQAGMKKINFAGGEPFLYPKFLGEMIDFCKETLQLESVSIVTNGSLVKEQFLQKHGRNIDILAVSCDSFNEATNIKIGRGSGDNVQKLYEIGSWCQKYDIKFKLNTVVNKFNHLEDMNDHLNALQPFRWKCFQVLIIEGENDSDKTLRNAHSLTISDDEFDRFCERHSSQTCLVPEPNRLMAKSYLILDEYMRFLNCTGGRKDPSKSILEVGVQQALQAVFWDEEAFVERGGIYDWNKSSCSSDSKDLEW

TvVip2 [3] = molecular target: TvVip2 (Trichoderma virens, UniProt G9N0G3, F40H); test: X-ray crystal structure, […] Å; type: binding; settings: active site, anaerobic
TvVip2 [4] = molecular target: T3, TvVip2 (Trichoderma virens, UniProt G9N0G3); test: X-ray crystal structure, […] Å; type: binding; settings: active site, anaerobic
T3 sequence (G9N0G3 32-328): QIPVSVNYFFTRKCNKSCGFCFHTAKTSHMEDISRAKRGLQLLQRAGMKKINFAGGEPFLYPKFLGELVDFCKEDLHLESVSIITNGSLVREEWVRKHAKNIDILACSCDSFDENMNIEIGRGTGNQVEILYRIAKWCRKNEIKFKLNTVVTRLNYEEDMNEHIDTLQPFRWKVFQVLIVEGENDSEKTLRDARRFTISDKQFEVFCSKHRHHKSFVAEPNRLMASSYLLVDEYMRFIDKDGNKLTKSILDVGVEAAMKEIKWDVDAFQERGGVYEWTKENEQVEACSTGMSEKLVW

TvVip1 CTP-swap V2 [5] = molecular target: T2, TvVip1 CTP-swap V2; test: competition: deu-5'-dA formation by LC-MS, Cheng-Prusoff from IC50 and Km; type: biochemical; settings: calculated from average IC50 and Km; competitive assumption; 1 mM deuUTP, 1 mM SAM, 10 μM enzyme, dithionite, HEPES pH 7.5
TvVip1 [6] = molecular target: T1, TvVip1; test: as above; type: biochemical; settings: calculated from average IC50 and Km; competitive assumption; 1 mM deuUTP, 1 mM SAM, 10 μM enzyme, dithionite, HEPES pH 7.5

SMILES	IC50 (TvVip1 [1]) [µM]	Ki (UTP) (TvVip1 CTP-swap V2 [2]) [µM]	X-ray crystal structure, 2.3 Å (TvVip2 [3]; with CTP and [4Fe-4S])	X-ray crystal structure, 1.5 Å (TvVip2 [4]; with CTP and [4Fe-4S])	Ki (CTP) (TvVip1 CTP-swap V2 [5]) [µM]	Ki (CTP) (TvVip1 [6]) [µM]	X-ray crystal structure, 2.3 Å (TvVip2 [3]; with SAM and [4Fe-4S])	X-ray crystal structure, 1.5 Å (TvVip2 [4]; with SAM and [4Fe-4S])
O=c1ccn([C@@H]2O[C@H](COP(=O)(O)OP(=O)(O)OP(=O)(O)O)[C@@H](O)[C@H]2O)c(=O)[nH]1 [UTP]	19 ± 5.7	> 59						
C[S+](CC[C@H](N)C(=O)O)C[C@H]1O[C@@H](n2cnc3c(N)ncnc32)[C@H](O)[C@@H]1O (stereo partly drawn) [SAM]			TvVip2 F40H (PDB: 9DFU) in the presence of CTP and SAM	contain strong electron density representing the radical SAM [4Fe-4S] cluster, SAM, and CTP				
Nc1ccn([C@@H]2O[C@H](COP(=O)(O)OP(=O)(O)OP(=O)(O)O)[C@@H](O)[C@H]2O)c(=O)n1 [CTP]	> 4900				0.22	> 360	TvVip2 F40H (PDB: 9DFU) in the presence of CTP and SAM	contain strong electron density representing the radical SAM [4Fe-4S] cluster, SAM, and CTP
